PMC12090182, “Repurposing of the RIPK1-Selective Benzo[1,4]oxazepin-4-one Scaffold for the Development of a Type III LIMK1/2 Inhibitor” (ACS Chemical Biology, 2025)
Like-named read-outs stand apart in the source and are kept apart here.

What was measured:
[1] = target: BRD4 (Homo sapiens, UniProt O60885); assay: DSF selectivity screening; assay type: binding; details: 10 μM compound
[2] = target: JAK2 (V617F) (Homo sapiens, UniProt O60674, V617F); assay: cell-based; details: HEK-293T; 1 μM inhibitor, HEK293T cells
[3] = target: LRRK2 (Homo sapiens, UniProt Q5S007); assay: scanMAX KINOMEscan (Eurofins); assay type: binding
[4] = test system: FLT3(ITD,D835V); assay type: binding; details: 1000 nM
[5] = target: PIK3CA(M1043I) (Homo sapiens, UniProt P42336, M1043I); assay: biochemical; assay type: binding; details: read-out: Percent Control
[6] = target: FGFR3(G697C) (Homo sapiens, UniProt P22607, G697C); assay: biochemical; assay type: binding; details: compound concentration 100 nM; Entrez FGFR3; read-out: Percent Control
Chain of FGFR3(G697C) (P22607 23-806 G697C): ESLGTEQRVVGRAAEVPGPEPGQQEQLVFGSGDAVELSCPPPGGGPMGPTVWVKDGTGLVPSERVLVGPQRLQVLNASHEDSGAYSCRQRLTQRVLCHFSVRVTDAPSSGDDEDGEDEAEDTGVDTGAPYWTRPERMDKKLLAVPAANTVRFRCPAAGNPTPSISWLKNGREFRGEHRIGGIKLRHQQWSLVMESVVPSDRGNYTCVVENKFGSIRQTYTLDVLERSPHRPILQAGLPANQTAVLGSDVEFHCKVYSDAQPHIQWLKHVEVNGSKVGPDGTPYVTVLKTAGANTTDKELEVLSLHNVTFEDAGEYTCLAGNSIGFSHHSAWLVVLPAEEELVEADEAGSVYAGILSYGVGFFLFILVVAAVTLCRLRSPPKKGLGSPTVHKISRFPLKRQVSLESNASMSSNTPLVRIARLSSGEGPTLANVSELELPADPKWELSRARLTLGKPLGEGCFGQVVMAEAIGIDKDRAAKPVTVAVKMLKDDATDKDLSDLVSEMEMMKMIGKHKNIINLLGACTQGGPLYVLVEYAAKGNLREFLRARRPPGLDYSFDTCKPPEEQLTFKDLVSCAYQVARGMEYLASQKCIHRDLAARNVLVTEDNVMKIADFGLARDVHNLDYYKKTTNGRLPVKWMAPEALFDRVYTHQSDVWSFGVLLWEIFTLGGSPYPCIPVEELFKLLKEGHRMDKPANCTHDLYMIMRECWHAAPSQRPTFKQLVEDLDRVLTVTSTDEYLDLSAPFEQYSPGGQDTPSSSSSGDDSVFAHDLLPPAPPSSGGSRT

Chain of LRRK2 (Q5S007 whole entry): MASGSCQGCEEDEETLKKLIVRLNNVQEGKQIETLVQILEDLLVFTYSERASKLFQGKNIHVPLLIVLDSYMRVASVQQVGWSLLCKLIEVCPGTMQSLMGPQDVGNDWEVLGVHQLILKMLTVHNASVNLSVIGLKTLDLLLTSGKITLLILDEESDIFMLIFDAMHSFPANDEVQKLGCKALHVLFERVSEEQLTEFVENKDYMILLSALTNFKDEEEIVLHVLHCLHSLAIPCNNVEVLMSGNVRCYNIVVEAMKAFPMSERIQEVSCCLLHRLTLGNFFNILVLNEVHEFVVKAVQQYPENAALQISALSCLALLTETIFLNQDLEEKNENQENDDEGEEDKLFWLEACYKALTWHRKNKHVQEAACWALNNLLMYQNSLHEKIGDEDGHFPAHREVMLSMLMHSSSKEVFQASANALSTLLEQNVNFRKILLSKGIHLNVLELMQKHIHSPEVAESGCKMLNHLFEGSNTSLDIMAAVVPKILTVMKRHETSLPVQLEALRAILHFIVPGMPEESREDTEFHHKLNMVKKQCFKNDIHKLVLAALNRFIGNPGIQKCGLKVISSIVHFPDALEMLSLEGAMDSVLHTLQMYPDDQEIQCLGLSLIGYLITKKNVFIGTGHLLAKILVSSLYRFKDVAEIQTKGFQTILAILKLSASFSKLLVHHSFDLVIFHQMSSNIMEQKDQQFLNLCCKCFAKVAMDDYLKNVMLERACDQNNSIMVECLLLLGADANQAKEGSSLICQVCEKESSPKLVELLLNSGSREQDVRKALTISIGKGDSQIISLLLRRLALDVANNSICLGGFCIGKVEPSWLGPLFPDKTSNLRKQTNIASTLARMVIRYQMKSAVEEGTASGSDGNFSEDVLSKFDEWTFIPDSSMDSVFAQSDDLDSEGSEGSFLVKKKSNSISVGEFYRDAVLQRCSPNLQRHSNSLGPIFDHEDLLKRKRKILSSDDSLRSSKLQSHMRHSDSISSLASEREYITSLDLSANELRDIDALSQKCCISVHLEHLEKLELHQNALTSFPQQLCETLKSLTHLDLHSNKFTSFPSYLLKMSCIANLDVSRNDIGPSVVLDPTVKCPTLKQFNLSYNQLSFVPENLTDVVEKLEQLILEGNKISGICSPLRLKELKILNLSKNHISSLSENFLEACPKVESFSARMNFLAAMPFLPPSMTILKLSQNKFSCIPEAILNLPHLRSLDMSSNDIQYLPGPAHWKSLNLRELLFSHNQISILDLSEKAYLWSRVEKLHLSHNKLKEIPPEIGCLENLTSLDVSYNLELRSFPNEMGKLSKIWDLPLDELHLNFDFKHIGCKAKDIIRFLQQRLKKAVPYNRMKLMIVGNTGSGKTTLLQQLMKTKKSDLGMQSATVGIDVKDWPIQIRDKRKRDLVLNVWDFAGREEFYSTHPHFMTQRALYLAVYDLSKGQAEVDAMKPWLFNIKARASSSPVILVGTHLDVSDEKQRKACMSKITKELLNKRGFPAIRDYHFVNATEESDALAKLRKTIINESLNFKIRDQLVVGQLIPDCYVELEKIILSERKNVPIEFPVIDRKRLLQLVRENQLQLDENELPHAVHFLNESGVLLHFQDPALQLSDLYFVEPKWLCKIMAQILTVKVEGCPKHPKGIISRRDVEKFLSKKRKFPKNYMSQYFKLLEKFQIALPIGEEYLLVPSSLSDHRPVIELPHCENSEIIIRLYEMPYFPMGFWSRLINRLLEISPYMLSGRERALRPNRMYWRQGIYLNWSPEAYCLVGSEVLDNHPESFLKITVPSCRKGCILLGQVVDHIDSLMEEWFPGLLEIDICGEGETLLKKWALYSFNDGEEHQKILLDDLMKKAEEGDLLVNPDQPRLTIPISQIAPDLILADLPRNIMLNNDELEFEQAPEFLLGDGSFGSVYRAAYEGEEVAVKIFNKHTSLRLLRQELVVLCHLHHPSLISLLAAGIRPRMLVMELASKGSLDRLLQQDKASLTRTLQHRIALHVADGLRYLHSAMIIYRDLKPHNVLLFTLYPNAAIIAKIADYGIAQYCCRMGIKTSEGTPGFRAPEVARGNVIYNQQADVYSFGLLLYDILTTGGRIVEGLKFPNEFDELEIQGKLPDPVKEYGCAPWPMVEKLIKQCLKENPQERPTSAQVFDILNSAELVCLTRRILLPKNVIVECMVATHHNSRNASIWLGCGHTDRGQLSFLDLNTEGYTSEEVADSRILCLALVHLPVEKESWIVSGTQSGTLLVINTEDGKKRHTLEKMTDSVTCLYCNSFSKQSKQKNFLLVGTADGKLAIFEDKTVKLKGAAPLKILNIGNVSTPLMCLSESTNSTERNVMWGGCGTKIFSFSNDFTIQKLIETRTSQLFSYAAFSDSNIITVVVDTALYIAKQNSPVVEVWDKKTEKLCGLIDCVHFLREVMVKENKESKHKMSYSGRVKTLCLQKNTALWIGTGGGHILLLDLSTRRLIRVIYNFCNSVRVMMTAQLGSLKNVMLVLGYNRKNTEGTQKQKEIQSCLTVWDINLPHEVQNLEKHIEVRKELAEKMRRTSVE
Chain of JAK2 (V617F) (O60674 whole entry V617F): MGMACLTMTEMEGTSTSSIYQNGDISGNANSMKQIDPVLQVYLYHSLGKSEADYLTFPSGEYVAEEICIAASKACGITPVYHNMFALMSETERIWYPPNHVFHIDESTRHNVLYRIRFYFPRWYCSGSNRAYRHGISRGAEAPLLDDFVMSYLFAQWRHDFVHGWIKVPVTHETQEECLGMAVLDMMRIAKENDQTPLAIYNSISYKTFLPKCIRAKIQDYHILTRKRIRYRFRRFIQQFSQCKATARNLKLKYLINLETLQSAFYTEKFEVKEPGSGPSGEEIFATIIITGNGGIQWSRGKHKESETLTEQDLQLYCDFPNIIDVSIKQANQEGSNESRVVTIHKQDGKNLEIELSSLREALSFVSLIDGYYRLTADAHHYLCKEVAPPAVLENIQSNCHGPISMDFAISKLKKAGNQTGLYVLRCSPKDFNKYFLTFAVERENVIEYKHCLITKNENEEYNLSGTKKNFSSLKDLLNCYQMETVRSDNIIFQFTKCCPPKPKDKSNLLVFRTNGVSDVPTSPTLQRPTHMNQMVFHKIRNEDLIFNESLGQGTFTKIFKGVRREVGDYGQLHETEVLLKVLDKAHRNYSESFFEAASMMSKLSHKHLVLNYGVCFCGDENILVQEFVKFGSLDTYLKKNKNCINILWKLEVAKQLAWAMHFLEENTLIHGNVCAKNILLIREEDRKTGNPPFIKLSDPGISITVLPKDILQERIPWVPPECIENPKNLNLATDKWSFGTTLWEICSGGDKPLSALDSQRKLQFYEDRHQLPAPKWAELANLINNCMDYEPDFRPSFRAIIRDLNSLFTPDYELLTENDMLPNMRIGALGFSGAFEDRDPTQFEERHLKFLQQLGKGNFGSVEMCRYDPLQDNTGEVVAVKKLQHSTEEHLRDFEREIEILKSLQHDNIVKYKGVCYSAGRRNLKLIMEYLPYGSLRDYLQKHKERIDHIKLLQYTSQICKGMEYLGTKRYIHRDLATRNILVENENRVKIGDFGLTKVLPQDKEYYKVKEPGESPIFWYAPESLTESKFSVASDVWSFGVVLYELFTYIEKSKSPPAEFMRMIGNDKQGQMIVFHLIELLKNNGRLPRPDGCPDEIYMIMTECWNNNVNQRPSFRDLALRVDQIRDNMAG

Structure (SMILES): CN1C(=O)[C@@H](N2CCc3c(nn(Cc4ccccc4)c3C(N)=O)C2=O)COc2cc(Cl)ccc21 [Compound 10, (S)-2-benzyl-6-(8-chloro-5-methyl-4-oxo-2,3,4,5-tetrahydrobenzo[b][1,4]oxazepin-3-yl)-7-oxo-4,5,6,7-tetrahydro-2H-pyrazolo[3,4-c]pyridine-3-carboxamide]
- ΔTm at 10 µM [1]: -1.4 °C
- receptor occupancy at 1 µM [2]: 2.27%
- remaining binding at 0.1 µM ([3]; LRRK2 (Entrez LRRK2), 100 nM, read-out: Percent Control): 84%
- remaining binding at 1 µM ([3]; LRRK2, 1 μM, read-out: POC (Top Hits @ 1 μM)): 62%
- remaining binding at 1 µM ([3]; LRRK2, 1000 nM, read-out: Percent Control): 62%
- Percent Control [4]: 81%
- remaining activity at 1 µM [5]: 87%
- remaining activity at 0.1 µM [6]: 92%
